Results on one molecule are retold here after publication PMC10573892, “β-Lactam TRPM8 Antagonists Derived from Phe-Phenylalaninol Conjugates: Structure–Activity Relationships and Antiallodynic Activity” (International Journal of Molecular Sciences, 2023).

In test [1] the target is T1, rat TRPM8 channel (rTRPM8) (Rattus norvegicus, UniProt Q8R455).
T1 construct: expressed in transfected cells
Nature of the test: Ca2+ microfluorimetry, menthol-induced Ca2+ entry in HEK293 cells overexpressing rTRPM8. It is filed as cell-based. As to conditions: Table 3; rTRPM8, HEK293, activation by 100 µM menthol. On the procedure:
The diastereomeric 1,4,4-trisubstitutes β-lactams were evaluated as modulators of the TRPM8 channel by calcium microfluorimetry assays. These assays use a Human Embryonic Kidney 293 (HEK293) cell line that stably overexpressed rat TRPM8 channel (rTRPM8). […] Three separated experiments in triplicate were used.
The initial biological evaluation of this series of 1,3,4,4-tetrasubstituted β-lactams was performed by calcium microfluorimetry assays using the indicated HEK293 cell line overexpressing rTRPM8 channels.
(§1) Calcium fluorometry, Patch-Clamp assays and in vivo experiments were performed using the methodology previously described for TRPM8 [35] or TRPM3 [61]. In the Patch -Clamp experiments, the intracellular pipette solution contained (in mM) 140 KCl, 5 EGTA, and 10 mM HEPES, adjusted to pH 7.2 with KOH, and the extracellular solution contained (in mM) 140 NaCl, 2 CaCl2, 1 MgCl2, 10 D-glucose and 10 HEPES, adjusted to pH 7.4 with NaOH. Selectivity against TRPV1, TRPV3, TRPA1 and ASIC3 was subcontracted to Eurofins-CEREP or Eurofins-PANLABS (see ref. [35] for more details).

The next test concerns the target T2, hTRPM8 (Homo sapiens, UniProt Q7Z2W7).
T2 construct: expressed in transfected cells; host or cells: HEK293
The test is described as follows: Ca2+ microfluorimetry in HEK293 cells expressing human TRPM8. As to conditions: activation by 100 µM menthol; read-out: Ca^2+ Microfluorimetry Assays hTRPM8 IC50. Type of test: cell-based. The procedure: To further characterize this family of compounds, calcium microfluorimetry assays were conducted using the HEK293 cell line, which expresses the human isoform of the TRPM8 channel. Amide derivatives 34 and 35 were selected, and their outcomes were compared with those of the model compound 1 (Table 4). […] This behavior is not particular of these β-lactams, but it is similar to those observed for other TRPM8 antagonists.
as §1

The target in the next test is T3, rTRPM8 (Rattus norvegicus, UniProt Q8R455).
T3 construct: expressed in transfected cells
The test is described as follows: Patch-Clamp electrophysiology on single HEK293 cells expressing rat TRPM8. Type of test: cell-based. The note with it: activation by 100 µM menthol; holding voltage −60 mV.
Excerpt: A recent research study using Patch-Clamp, among other techniques, established that menthol occupies a cavity within the TRPM8 S1–S4 transmembrane helix, with the OH group forming an H-bond with the δ-NH of R842 residue, and Van der Waals interactions among the methyl groups of the ^iPr moiety and residues I846 and L843 [41].
This is evident by a negligible current at negative potentials and a linear intensification of the ohmic current at positive voltages. When applying compound 34 at a concentration of […], a noticeable reduction in menthol-induced activity at depolarizing voltages was observed (indicated by the red line) compared to menthol alone. Dose–response relationships for both tested compounds were established through triplicate experiments at various concentrations, applying a holding voltage of −60 mV (as shown in Figure 2B).
as §1
Figure 2 Compound 34 blocks TRPM8-mediated responses evoked by menthol in rTRPM8-expressing HEK293 cells. (A) IV curves obtained after exposure to vehicle solution (green trace), 100 µM menthol (blue trace) and 100 µM menthol + 10 µM 34 (red trace). Peak current data were expressed as pA/pF (to allow comparison among different size cells). Each point is the mean ± SEM of n = 15. (B) Concentration/response curves for rTRPM8 current blockade by 34 at a holding voltage of −60 mV. […]

A further test deals with T4, hTRPV1 (Homo sapiens, UniProt Q8NER1).
T4 construct: Eurofins-CEREP or Eurofins-PANLABS (contract assay)
The test is described as follows: TRPV1 channel Ca2+ microfluorimetry (capsaicin 30 nM). It is filed as cell-based.
Excerpt: (§2) The effects of compound 34 have been evaluated on different ion channels and receptors implicated in pain-related processes to assess the selectivity for TRPM8 channels. First, some TRP channels that play a role in temperature integration and nociception were selected, including hTRPV1, hTRPV3, hTRPA1 and TRPM3. Additionally, the evaluation encompassed the hASIC3 channel with widespread distribution within the peripheral nervous system and contributions to the excitability of primary sensory neurons. In each instance, the compound was subjected to evaluation at a consistent concentration of 10 µM.
as §1

For the next test, the target named is hTRPM3 (Homo sapiens, UniProt Q9HCF6). Nature of the test: TRPM3 channel Ca2+ microfluorimetry (pregnenolone sulfate 50 µM). It is filed as cell-based. The note with it: 10 μM; agonist pregnenolone sulfate 50 µM; read-out: % Channel Inhibition at 10 μM hTRPM3. The procedure:
First, some TRP channels that play a role in temperature integration and nociception were selected, including hTRPV1, hTRPV3, hTRPA1 and TRPM3. Additionally, the evaluation encompassed the hASIC3 channel with widespread distribution within the peripheral nervous system and contributions to the excitability of primary sensory neurons. In each instance, the compound was subjected to evaluation at a consistent concentration of 10 µM.
as §1

The next test deals with T5, hASIC3 channel (Homo sapiens, UniProt Q9UHC3).
T5 construct: Eurofins-CEREP or Eurofins-PANLABS (contract assay)
T5 sequence (Q9UHC3 1-531): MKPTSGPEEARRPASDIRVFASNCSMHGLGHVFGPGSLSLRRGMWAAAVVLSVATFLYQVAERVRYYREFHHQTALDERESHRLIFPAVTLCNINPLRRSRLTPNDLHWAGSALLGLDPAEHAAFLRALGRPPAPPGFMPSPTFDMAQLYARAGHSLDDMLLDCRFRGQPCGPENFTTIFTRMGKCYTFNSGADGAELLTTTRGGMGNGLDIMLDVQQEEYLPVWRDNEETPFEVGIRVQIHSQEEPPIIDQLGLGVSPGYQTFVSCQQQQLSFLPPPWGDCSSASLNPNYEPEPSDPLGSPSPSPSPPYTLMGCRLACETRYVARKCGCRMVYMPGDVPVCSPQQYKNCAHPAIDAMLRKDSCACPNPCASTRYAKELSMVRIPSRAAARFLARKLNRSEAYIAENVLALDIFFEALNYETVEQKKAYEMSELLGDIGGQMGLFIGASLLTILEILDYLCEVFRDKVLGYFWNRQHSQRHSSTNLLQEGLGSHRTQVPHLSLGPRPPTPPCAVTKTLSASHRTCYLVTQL
Nature of the test: ASIC3 channel functional assay (buffer pH 5.5). Type of test: cell-based.
Excerpt: as §2, §1

The next test deals with hCB2 (Homo sapiens, UniProt P34972). Nature of the test: Radioligand binding at cannabinoid CB2 receptor. As to conditions: radioligand [3H]WIN 55212-2. The source says:
Furthermore, the investigation extended to measuring the binding affinity of compound 34 to calcitonin gene-related peptide hCGRPR, cannabinoid hCB2 and muscarinic hM3 receptors, which are all relevant to different pain conditions.

T4 sequence (Q8NER1 whole entry): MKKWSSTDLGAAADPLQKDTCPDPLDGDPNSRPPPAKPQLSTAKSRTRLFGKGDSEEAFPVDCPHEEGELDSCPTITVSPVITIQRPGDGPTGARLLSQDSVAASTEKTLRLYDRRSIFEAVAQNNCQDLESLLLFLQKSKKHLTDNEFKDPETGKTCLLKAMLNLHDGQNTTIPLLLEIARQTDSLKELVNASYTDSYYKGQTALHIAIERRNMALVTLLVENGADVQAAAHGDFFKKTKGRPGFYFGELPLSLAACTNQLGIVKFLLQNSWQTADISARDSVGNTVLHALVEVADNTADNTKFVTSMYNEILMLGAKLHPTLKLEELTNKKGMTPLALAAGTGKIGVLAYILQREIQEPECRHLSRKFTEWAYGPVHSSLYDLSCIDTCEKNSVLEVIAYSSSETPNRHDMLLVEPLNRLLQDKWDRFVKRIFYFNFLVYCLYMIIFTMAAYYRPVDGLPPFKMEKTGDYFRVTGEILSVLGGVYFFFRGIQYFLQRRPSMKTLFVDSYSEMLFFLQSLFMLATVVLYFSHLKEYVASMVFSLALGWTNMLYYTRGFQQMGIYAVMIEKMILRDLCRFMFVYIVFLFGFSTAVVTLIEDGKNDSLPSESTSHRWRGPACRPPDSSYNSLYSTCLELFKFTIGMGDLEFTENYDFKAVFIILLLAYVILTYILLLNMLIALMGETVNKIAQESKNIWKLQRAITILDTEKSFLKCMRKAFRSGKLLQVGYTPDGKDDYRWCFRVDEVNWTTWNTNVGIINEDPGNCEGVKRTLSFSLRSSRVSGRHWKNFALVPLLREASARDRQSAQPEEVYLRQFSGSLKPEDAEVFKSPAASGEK
Sequence of hTRPM3 (Q9HCF6 whole entry): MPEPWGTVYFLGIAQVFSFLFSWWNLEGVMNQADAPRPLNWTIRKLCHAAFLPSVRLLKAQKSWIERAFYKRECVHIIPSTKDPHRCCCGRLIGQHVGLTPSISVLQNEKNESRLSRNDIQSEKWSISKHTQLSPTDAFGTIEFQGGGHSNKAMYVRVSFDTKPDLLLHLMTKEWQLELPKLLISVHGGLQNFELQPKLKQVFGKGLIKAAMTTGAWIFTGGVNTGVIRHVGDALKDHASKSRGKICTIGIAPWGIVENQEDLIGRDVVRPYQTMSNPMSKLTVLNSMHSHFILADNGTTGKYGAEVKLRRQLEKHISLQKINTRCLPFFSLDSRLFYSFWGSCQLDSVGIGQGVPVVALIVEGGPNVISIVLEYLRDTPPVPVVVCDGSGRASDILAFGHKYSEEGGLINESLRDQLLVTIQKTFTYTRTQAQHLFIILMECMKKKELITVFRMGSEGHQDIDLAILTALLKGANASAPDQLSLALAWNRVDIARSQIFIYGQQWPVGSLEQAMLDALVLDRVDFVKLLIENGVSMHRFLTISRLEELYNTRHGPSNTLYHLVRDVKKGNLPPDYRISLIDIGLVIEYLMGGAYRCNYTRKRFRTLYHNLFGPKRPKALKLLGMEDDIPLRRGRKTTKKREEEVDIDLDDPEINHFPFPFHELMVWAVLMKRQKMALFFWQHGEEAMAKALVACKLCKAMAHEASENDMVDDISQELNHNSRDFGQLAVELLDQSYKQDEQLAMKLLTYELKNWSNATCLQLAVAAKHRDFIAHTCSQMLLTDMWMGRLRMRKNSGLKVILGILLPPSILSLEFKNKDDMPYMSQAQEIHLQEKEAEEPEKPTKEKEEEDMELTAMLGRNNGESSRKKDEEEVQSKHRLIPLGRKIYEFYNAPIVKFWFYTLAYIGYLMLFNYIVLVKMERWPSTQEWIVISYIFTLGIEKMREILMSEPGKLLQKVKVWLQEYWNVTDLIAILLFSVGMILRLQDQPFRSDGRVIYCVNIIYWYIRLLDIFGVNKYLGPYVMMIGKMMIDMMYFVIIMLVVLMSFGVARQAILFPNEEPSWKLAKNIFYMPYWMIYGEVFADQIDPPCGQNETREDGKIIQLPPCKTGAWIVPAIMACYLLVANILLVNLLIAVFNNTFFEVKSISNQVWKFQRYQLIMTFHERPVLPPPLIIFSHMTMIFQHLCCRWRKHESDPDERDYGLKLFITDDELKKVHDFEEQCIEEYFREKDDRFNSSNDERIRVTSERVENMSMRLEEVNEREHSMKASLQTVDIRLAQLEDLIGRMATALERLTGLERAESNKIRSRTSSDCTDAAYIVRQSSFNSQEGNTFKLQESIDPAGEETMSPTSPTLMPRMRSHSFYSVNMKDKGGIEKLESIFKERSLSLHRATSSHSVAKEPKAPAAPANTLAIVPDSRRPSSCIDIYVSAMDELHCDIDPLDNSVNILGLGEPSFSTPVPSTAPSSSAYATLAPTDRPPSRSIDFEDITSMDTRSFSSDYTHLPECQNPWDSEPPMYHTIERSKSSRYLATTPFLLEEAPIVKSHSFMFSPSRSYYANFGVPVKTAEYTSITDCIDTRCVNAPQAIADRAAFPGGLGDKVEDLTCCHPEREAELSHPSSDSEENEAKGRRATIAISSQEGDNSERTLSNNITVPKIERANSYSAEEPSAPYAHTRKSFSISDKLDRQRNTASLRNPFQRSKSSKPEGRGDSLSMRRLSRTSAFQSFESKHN
T1 sequence (Q8R455 whole entry): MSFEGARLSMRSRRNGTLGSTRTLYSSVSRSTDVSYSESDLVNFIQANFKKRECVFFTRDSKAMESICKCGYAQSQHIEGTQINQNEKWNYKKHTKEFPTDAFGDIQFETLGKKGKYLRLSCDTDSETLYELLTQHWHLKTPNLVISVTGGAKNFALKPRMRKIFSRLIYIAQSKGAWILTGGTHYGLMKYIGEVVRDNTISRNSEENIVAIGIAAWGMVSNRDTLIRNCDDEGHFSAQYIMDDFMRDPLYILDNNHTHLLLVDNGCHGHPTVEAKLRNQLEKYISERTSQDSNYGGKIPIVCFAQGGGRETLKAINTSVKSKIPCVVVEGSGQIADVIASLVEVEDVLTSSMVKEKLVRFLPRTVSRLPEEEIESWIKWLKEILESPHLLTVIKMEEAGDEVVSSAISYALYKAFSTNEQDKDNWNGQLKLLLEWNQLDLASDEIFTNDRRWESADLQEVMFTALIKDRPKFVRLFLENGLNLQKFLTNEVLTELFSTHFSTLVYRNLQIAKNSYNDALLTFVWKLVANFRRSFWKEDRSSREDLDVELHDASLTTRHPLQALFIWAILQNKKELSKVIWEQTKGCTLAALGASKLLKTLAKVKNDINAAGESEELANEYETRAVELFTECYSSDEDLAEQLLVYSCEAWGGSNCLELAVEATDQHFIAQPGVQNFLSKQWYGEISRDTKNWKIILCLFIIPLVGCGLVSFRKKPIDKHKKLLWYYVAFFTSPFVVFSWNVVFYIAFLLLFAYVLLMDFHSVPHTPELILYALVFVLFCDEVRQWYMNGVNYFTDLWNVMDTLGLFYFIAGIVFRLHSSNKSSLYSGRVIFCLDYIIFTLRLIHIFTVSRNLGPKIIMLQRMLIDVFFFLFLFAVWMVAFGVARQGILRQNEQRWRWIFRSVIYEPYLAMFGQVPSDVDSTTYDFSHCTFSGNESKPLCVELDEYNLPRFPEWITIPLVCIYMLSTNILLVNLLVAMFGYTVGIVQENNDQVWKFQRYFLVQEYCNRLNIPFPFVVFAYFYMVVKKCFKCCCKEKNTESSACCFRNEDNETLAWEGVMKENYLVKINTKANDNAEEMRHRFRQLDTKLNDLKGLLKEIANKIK
T3 sequence (Q8R455 whole entry): as above
T2 sequence (Q7Z2W7 whole entry): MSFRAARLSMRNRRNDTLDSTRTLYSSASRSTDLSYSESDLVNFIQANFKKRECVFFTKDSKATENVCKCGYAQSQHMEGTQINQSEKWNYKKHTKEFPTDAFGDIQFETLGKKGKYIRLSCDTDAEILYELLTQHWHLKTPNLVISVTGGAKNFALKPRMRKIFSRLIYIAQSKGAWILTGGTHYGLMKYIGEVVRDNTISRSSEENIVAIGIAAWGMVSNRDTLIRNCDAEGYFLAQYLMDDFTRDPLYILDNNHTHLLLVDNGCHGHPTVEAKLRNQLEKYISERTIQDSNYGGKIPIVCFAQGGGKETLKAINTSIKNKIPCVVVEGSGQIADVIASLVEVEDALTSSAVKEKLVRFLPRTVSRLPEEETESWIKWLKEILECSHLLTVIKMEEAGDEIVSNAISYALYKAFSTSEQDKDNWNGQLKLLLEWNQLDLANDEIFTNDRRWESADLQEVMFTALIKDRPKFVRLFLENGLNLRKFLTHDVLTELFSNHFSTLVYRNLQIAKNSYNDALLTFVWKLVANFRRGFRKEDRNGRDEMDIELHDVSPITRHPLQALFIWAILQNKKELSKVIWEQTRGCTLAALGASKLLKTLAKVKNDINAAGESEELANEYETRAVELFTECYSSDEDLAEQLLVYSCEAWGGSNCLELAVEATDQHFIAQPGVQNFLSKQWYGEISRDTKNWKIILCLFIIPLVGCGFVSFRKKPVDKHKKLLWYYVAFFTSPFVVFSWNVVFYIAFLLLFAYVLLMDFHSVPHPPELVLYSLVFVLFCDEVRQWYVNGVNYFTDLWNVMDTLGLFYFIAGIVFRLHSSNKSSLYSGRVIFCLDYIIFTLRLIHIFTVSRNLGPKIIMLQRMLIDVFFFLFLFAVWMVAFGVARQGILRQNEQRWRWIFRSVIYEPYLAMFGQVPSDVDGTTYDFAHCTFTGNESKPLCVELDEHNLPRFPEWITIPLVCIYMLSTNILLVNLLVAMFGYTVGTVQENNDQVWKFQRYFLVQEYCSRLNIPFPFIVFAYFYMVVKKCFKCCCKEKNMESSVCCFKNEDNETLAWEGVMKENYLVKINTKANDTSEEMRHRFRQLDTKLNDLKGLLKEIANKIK

`CC(C)CNC(=O)[C@]1(Cc2ccccc2)[C@H](C)C(=O)N1C[C@H](Cc1ccccc1)N(Cc1ccccc1)Cc1ccccc1` [Compound 34, 4S-Benzyl-4-[N-(iso-butyl)-carbamoyl]-3S-methyl-1-[(2′S-dibenzylamino-3′-phenyl)prop-1′-yl]-2-oxoazetidine]: the IC50 turned out to be 0.3 µM in test [1], 2.58 ± 1.24 µM on hTRPM8 and 0.16 µM at rTRPM8. Further, the “activation on the TRPV1 channel” value on hTRPV1 (10 µM) is “did not show activation”. Further, the inhibition at 10 µM was determined as 8.9 ± 2.9% at hTRPV1 (10 μM, agonist capsaicin 30 nM); 6.9 ± 10.7% on hTRPM3; 2.2 ± 9.6% at hASIC3 channel; 7 ± 2.1% on hCB2.
